Experimental data as given in US20190070229A1, “Composition comprising a lactic acid bacteria for preventing and treating vaginosis and the use thereof” (HAUDONGCHUN CO., LTD, priority 2016, published 2019).

Legend:
Settings in all cases: MRS medium, 37° C.; A50, K50, S50 50, C34 34, T15 15, G20 20, R25 25 microgram/ml
[1] = test system: BBA (Bifidobacterium adolescentis); experiment: Antibiotic susceptibility of lactic acid bacteria strains; assay type: cell-based; note: key: +++: being normally grown without the effect of antibiotic; −: being not grown caused by the effect of antibiotic
Protocol: (§1) In order to determine the antibiotic resistance of the lactic acid bacteria strains reproducing abundant lactic acids, i.e., Lactobacillus acidophilus (KCTC No. 3164), Bifidobacterium longum sub sp. longum (KCTC No. 3128) etc, the bacteria was inoculated into MRS medium (10 g of Protease peptone, 10 g of beef extract, 5 g of yeast extract, 20 g of D-glucose, 1 ml of Tween 80, 2 g of K2HPO4, 5 g of sodium acetate, 2 g of diammonium hydrogencitrate, 0.2 g of MgSO47H20, 0.2 g of MnSO4H20, 1 L of distilled water, pH 6.2-6.5) and performed to shaking incubation at 37° C. at the speed of 150 rpm.

[2] = test system: BLD (Lactobacillus delbrueckii subsp. bulgaricus); experiment: as above; assay type: cell-based; note: key: +++: being normally grown without the effect of antibiotic; −: being not grown caused by the effect of antibiotic
Protocol: as §1

[3] = test system: BLA (Lactobacillus acidophilus); experiment: as above; assay type: cell-based; note: key: +++: being normally grown without the effect of antibiotic; −: being not grown caused by the effect of antibiotic
Protocol: as §1

[4] = test system: BBC (Bacillus cereus); experiment: as above; assay type: cell-based
Protocol: as §1

[5] = test system: BBC2 (Bifidobacterium catenulatum); experiment: as above; assay type: cell-based
Protocol: as §1

[6] = test system: BLC (Lactobacillus casei); experiment: as above; assay type: cell-based
Protocol: as §1

[7] = test system: BLB (Lactobacillus brevis); experiment: as above; assay type: cell-based
Protocol: as §1

[8] = test system: BBL (Bifidobacterium longum subsp. Longum); experiment: as above; assay type: cell-based
Protocol: as §1

[9] = test system: BBB2 (Bifidobacterium breve); design: key to the marks not given beside the values
[10] = test system: BSS (Streptococcus sp); experiment: Antibiotic susceptibility of lactic acid bacteria strains; assay type: cell-based
Protocol: as §1

[11] = test system: BBB1 (Bifidobacterium bifidum); design: key to the marks not given beside the values
Throughout, for Antibiotic susceptibility (growth of BBC with antibiotic): key: +++: being normally grown without the effect of antibiotic; −: being not grown caused by the effect of antibiotic.

Compound | Antibiotic susceptibility (growth of BBA with antibiotic) [1] | Antibiotic susceptibility (growth of BLD with antibiotic) [2] | Antibiotic susceptibility (growth of BLA with antibiotic) [3] | Antibiotic susceptibility (growth of BBC with antibiotic) [4] | Antibiotic susceptibility (growth of BBC2 with antibiotic) [5] | Antibiotic susceptibility (growth of BLC with antibiotic) [6] | Antibiotic susceptibility (growth of BLB with antibiotic) [7] | Antibiotic susceptibility (growth of BBL with antibiotic) [8] | Antibiotic susceptibility (growth of BBB2 with antibiotic) [9] | Antibiotic susceptibility (growth of BSS with antibiotic) [10] | Antibiotic susceptibility (growth of BBB1 with antibiotic) [11]
gentamycin | +++ | − | − | +++ | +++ | − | − | +++ |  |  | 
[H]/N=C(/N)N[C@H]1[C@H](O)[C@@H](O)[C@H](O[C@@H]2O[C@@H](C)[C@](O)(C=O)[C@H]2O[C@@H]2O[C@@H](CO)[C@H](O)[C@@H](O)[C@@H]2NC)[C@@H](N/C(N)=N\[H])[C@@H]1O [Streptomycin] |  | − | − |  |  | − | − | +++ | +++ |  | 
O=C(N[C@H](CO)[C@H](O)c1ccc([N+](=O)[O-])cc1)C(Cl)Cl [Chloramphenicol, chloramphenicol] | − | − | − | − | − | − | − | − |  | − | 
NC[C@H]1O[C@H](O[C@H]2[C@H](O)[C@@H](O[C@H]3O[C@H](CO)[C@@H](O)[C@H](N)[C@H]3O)[C@H](N)C[C@@H]2N)[C@H](O)[C@@H](O)[C@@H]1O [Kanamycin, kanamycin] |  | +++ | +++ |  |  | +++ | +++ | +++ | +++ | +++ | +++
CO[C@H]1/C=C/O[C@@]2(C)Oc3c(C)c(O)c4c(O)c(c(/C=N/N5CCN(C)CC5)c(O)c4c3C2=O)NC(=O)/C(C)=C\C=C\[C@H](C)[C@H](O)[C@@H](C)[C@@H](O)[C@@H](C)[C@H](OC(C)=O)[C@@H]1C [Ripampicin, rifampicin] | − | − | − | − | − | − | − | − |  | − | 
CC1(C)S[C@@H]2[C@H](NC(=O)[C@H](N)c3ccccc3)C(=O)N2[C@H]1C(=O)O [Ampicillin, ampicillin] | − | − |  | − | − | − | − | − |  | − | 
CN(C)[C@@H]1C(=O)C(C(N)=O)=C(O)[C@@]2(O)C(=O)C3=C(O)c4c(O)cccc4[C@@](C)(O)[C@H]3C[C@@H]12 [Tetracyclin, tetracycline] | − | − | − | − | − | − | − | − |  | − | 
